Reference: US20070042026A1, “Prophylactic and therapeutic treatment of topical and transdermal drug-induced skin reactions” (priority 2005, published 2007)
One block for each molecule: values may come before it.

Key:
mouse skin [1] = conditions: cited from earlier work; for contact sensitization in a mouse skin model (mast cell degranulating agents): in vivo
mouse skin [2] = conditions: cited from earlier work
[3] = Rosmarinic acid 5%; cited from earlier work
[4] = DPPH* free-radical scavenging anti-oxidant assay; conditions: absorbance at 595 nm, after 30 minutes of incubation at 25° C.; read-out: molar activity (EC50, concentration that lowers the zero time optical absorbance of DPPH by 50 percent)
Procedure: Solutions of test compounds were assayed for their antioxidant activity by the free-radical scavenging method that uses diphenylpicryl hydrazine (DPPH*) reagent as described previously (Bonina et al, 2003). In order to standardize the activity, we defined for each compound, an EC50 value as the concentration that lowers the zero time optical absorbance of DPPH at 595 nm by 50 percent measured after 30 minutes of incubation at 25° C.

[5] = tested on: volar arm skin of volunteers; assay: 24-hour occlusive patch (Finn chamber) anti-irritant test with 0.5% benzalkonium chloride carrier gels; assay type: in vivo, human
Procedure: Occlusive patch testing was conducted on extracts prepared by starch gel encapsulation in a oil-in water emulsion system previously described (Wille, 2003).
Anti-irritant assays: All carrier system gels were prepared with 0.5% benzalkonium chloride, a mild irritant. To test for anti-irritancy, the irritant-containing carrier gels were also loaded with the test botanical extracts (experimentals). The control and test gels were deposited (100 microliters) on 10 mm square circular filter paper discs and placed in side of Finn chambers (20 mm square), which were then applied to the volar arm skin of volunteers. The chambers were affixed to skin with non-allergic adhesive tape and left in place for 24 hours. Upon termination of the treatments, the chambers were removed and the skin gently wiped clean with moistened cotton swabs. The exposed skin was first examined for signs of erythema (redness) and induration (swelling), and skin sites photographed. The exposed skin sites were probed for skin capacitance (skin moisture levels) using a Corneometer instrument (Courage & Khazaka, Koln, Germany).

HaCat keratinocytes = assay: Retinoid-stimulated autocrine clonal growth of HaCat keratinocytes (biochemical assay for anti-irritant activity); assay type: cell-based, human; conditions: 10 μM, 48 hours after treatment, retinoid-stimulated autocrine growth conditions
Procedure: Since retinoids irritate skin leading to epidermal hyperplasia, we have employed an in vitro cell culture method to detect antioxidants that act to inhibit retinoid-stimulated autocrine growth of human keratinocytes.
Method: An immortalized line of human epidermal kertatinocytes, HaCat keratinocytes, can be cultured in a serum-free culture medium. Sterile Petri dishes (35 mm^2) are seeded at 5,000 cells per cm^2 and placed in a humidifed CO2 incubator at 37° C. for 3-5 days or until the culture reaches about 30% confluent monolayer growth. The dishes are washed once with ice-cold serum-free media lacking EGF and insulin, and refed 2.5 ml of serum-free culture medium containing 5 ug/ml insulin and retinyl acetate (RA, 3×10^−8 M). Duplicate control dishes are fixed and stained with 0.2% crystal violet to record the amount of clonal growth prior to refeeding with fresh RA-containing medium. Test dishes refed RA and insulin are split into three groups in duplicate. Group A is refed on the RA plus insulin medium. Group B is refed RA plus insulin medium and a […] inhibitor (PD 153035), and Group C is refed medium containing RA plus insulin and from 0.1 to 5% of a hydroalcoholic botanical extract. All dishes are adjusted to have the same final concentration of alcohol (1%). All dishes are placed back in the incubator for 2 and 4 days. They are fixed and stained with 0.2% crystal violet. […]

Compound: C=C(CC)C(=O)c1ccc(OCC(=O)O)c(Cl)c1Cl [Ethacrynic acid]
prevention of contact sensitization due to Clonidine, Chlorpheniramine, Albuterol and Nadolol (mouse skin [1]; delivery of the sensitizing drugs to mouse skin): effective
prevention of skin irritation due to 2,4-dinitro-chlorobenzene, arachidonic acid, phorbol myristic acid, trans-retinoic acid and lactic acid (mouse skin [2]; topical application to mouse): effective

Compound: O=C(O)COc1ccccc1 [Phenoxyacetic acid]
contact sensitization due to para-phenylenediamine (mouse skin [1]; application of the hair dye to mouse skin): prevent contact sensitization
skin irritation due to a panel of known skin irritants including sodium lauryl sulfate (mouse skin [2]; mouse, in vivo): block skin irritation

Compound: O=C(/C=C/c1ccc(O)c(O)c1)O[C@H](Cc1ccc(O)c(O)c1)C(=O)O [Rosmarinic acid]
reduction of the irritating action of alpha-hydroxy acids (lactic and glycolic acids) [3]: over three-fold

Compound: COc1ccc(CCN(C)CCCC(C#N)(c2ccc(OC)c(OC)c2)C(C)C)cc1OC (stereo not shown) [Verapamil]
minimizing contact sensitization due to Nadolol (mouse skin [1]; topical application of Nadolol to mouse skin): effective

EC50 [4]: 26 µM
Compound: O=C1O[C@H]([C@@H](O)CO)C(O)=C1O [ascorbic acid]

EC50 [4]: 30 µM
Compound: CCCCCCCCCCCCCCCC(=O)OC[C@H](O)[C@H]1OC(=O)C(O)=C1O [ascorbyl palmitate]

Compound: COc1cc(CNC(=O)CCCC/C=C/C(C)C)ccc1O [capsaicin]
contact sensitization in a mouse skin model (mast cell degranulating agents) (mouse skin [1]): prevent contact sensitization

Compound: O=C(O)/C=C\c1c[nH]cn1 [cis-urocanic acid]
contact sensitization in a mouse skin model (mast cell degranulating agents) (mouse skin [1]): prevent contact sensitization

Compound: O=C(O)c1cc(O)c(O)c(O)c1 [gallic acid, 3,4,5-trihydroxybenzoic acid]
effect on benzalkonium chloride induced skin irritation ([5]; 24 hour occlusion): anti-irritant effect
irritancy to skin ([5]; gallic acid alone, 24 hours of occlusion): not irritating to skin
skin hydration profile ([5]; gallic acid alone, after 24 hours of occlusion): does not alter skin hydration profile

Compound: O.O.O=c1c(O)c(-c2ccc(O)c(O)c2)oc2cc(O)cc(O)c12 [quercetin dihydrate]
clonal growth relative to the untreated control (HaCat keratinocytes): completely inhibited
EC50 [4]: 86 µM

EC50 [4]: 46 µM
Compound: Cc1c(C)c2c(c(C)c1O)CC[C@@](C)(CCC[C@H](C)CCC[C@H](C)CCCC(C)C)O2 [vitamin E, alpha-tocopherol]
